Assay results reported in patent US11278549B2, “Method of treating obesity” (McMaster University, priority 2013, dated 2022).

Assays:
BAT cells = experiment: Serotonin on isoproterenol-stimulated cAMP and thermogenic program in BAT cells; format: cell-based, mouse; settings: serotonin prior to isoproterenol
Protocol: To examine whether serotonin could alter cAMP and the induction of the thermogenic program in a cell autonomous manner, BAT cells were treated with the concentrations of serotonin observed in the BAT of Tph1^+/+ mice fed a HFD (FIG. 9b) prior to stimulation with isoproterenol ([…]). Serotonin treatment attenuated isoproterenol-stimulated cAMP and phosphorylation of protein kinase A substrates such as hormone sensitive lipase (HSL […]-FIG. 9c) and importantly also blunted the induction of the thermogenic gene program (FIG. 9d-f). […] Cell Culture. An immortalized brown adipocyte (BA) cell line derived from mouse fetal brown fat (as described in Uldry et al., Cell metabolism, 3 (2006) 333-341) was cultured and differentiated as previously described in Mottillo, Journal of Biological Chemistry, 287 (2012) 25038-25048. Briefly, confluent cells were placed in induction media (0.5 mM IBMX; 0.25 mM indomethacin; 2 μg/ml dexamethasone; 1 nM T3, 20 nM insulin) for two days and subsequently maintained on differentiation media (1 nM T3, 20 nM insulin). All experiments were performed on cultures 6-8 days post-induction. Unless otherwise indicated, cells were rinsed with PBS and media was changed to HEPES-buffered Krebs Ringer buffer (HKRB)+1% BSA. Where indicated, BAs were treated with serotonin for 30 min (100 μM; Sigma) followed by isoproterenol (1 nM, Sigma) for 4 h. […] cAMP measurements. cAMP levels were measured in BA stimulated for 10 min with isoproterenol (1 nM). […] The cAMP levels were quantified by ELISA (Biomedical Technologies Inc.) as previously described (Mottillo et al., American Journal of Physiology-Endocrinology And Metabolism, 301 (2011) […]-[…]). […] The expression pattern of various genes was quantified by qRT-PCR analysis, as previously described (Mottillo et al., American journal of physiology, 293 (2007) […]-1197). […] 25 ng of cDNA was analyzed in a 10 μl quantitative PCR reaction (Amplitaq Gold) as previously described. […] The extracts were recovered and proteins were quantified by using the bicinchoninic acid method (Pierce). […]

5-HT receptor = experiment: Isoproterenol-induced lipolysis (FFA release) in immortalized BAT cells; format: cell-based, mouse; settings: 5-HT at 100 μM, n=2
Protocol: Briefly, confluent cells were placed in induction media (0.5 mM IBMX; 0.25 mM indomethacin; 2 μg/ml dexamethasone; 1 nM T3, 20 nM insulin) for two days and subsequently maintained on differentiation media (1 nM T3, 20 nM insulin). All experiments were performed on cultures 6-8 days post-induction. Unless otherwise indicated, cells were rinsed with PBS and media was changed to HEPES-buffered Krebs Ringer buffer (HKRB)+1% BSA. Where indicated, BAs were treated with serotonin for 30 min (100 μM; Sigma) followed by isoproterenol (1 nM, Sigma) for 4 h. The serotonin receptor antagonist, methysergide (3 μM) was used 45 min prior treatment with serotonin as above.

5-HT2A = biological target: T1, 5-HT2A (Mus musculus, UniProt P35363); experiment: Fluo-4 Ca2+ signals in brown adipocytes; format: cell-based
T1 construct: endogenous in cells; host or cells: immortalized murine brown adipocytes (differentiated)
T1 sequence (P35363 whole entry): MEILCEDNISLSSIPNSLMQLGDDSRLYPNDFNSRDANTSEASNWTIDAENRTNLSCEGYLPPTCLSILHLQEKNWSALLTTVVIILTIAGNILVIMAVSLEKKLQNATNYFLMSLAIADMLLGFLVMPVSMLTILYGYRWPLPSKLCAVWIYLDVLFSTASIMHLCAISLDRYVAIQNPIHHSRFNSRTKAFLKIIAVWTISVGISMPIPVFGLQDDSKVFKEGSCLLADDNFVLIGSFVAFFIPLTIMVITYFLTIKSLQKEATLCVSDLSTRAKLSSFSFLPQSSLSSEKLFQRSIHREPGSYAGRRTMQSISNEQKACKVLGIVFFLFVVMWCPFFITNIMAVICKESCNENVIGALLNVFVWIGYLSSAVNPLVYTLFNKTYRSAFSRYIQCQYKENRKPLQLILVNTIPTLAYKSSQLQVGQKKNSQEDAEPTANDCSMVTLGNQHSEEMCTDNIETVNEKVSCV
Description: Immortalized BA progenitor cells obtained from 5-HT2A KO (B6; 129-5-HT2Atm1a/Nju from Nanjing Biomedical Research Institute of Nanjing University) mice were differentiated for 9 days to produce mature BAs. Cells were then stained with fluo-4 and treated with different concentrations of 5-HT to obtain a dose response curve. Values from BAs expressing 5-HT2A used for other experiments were plotted as a WT comparison.

UCP1 = experiment: Ucp1 promoter activity, Ucp1 mRNA and UCP1 protein in brown adipocytes; format: cell-based, mouse
Protocol: Using RNA-Seq, cultured human brown and beige adipocytes were interrogated for 5-HT receptor mRNA expression. Immortalized murine brown adipocytes (BAs) were treated with or without the selective 5-HT reuptake inhibitor (SSRI), paroxetine (250 nM). Subsequent studies were conducted with and without 5-HT2A agonists (1 pM-10 uM TCB-2, 1 pM-10 uM AL-34662, and 1 pM-10 uM NBOH-2C-CN) and 5-HT2A antagonists (100 fM-100 pM MDL-100907, 100 pM-10 uM xylamidine tosylate, 1 nM ketanserin, 10 nM altanserin, 100 fM-100 pM EMD-281,014, and 100 pM-10 uM sarpogrelate hydrochloride).
BA progenitors were isolated and immortalized from WT and serotonin transporter (SERT; Gene: Slc6a4) KO mice. These cells were then differentiated for 7 days to obtain mature BAs. BAs were then treated with different doses of 5-HT for 4 hours. RNA was isolated and quantified using RT-qPCR with probes specific for Slc6a4, Ucp1 and PPIA.
BA progenitors were isolated from mice expressing a transgene where the luciferase gene is driven by the Ucp1 promoter (i.e. Ucp1-Luc2 mice; a.k.a. ThermoMouse; Jackson Laboratories). Upon 9 days of differentiation, these BAs were treated for 4 hours with different doses of 5-HT. Because in vitro there is not a continuous supply of 5-HT as there is in vivo, cells were treated with paroxetine to inhibit the uptake and consequent degradation of 5-HT, and to observe 5-HT receptor specific effects. These cells were then lysed, incubated with a luciferin assay cocktail, and the light generated quantified on a microplate reader.

brown adipose tissue = experiment: Acute 5-HT with or without xylamidine pretreatment: BAT activity in vivo; set-up: species or system mice
Protocol: Mice housed at 30° C. were injected with xylamidine (3 mg/kg, −2 hour), 5-HT (5 mg/kg, −1 hour) and/or CL-316,243 (1 mg/kg, −20 min). […] Interscapular surface temperature under saline (C) and CL-316,243 (D) conditions were quantified. n=6. † indicates interaction effect via 2-way ANOVA. * indicates significant difference from saline via bonferonni post-hoc test. In all graphs, bars represent mean and error bars represent S.E.M;
(§1) To investigate effects in vivo, 5-HT (5 mg/kg i.p.) was acutely administered to mice with or without a peripherally-restricted 5-HT2A antagonist (xylamidine tosylate) (3 mg/kg i.p.) to assess BAT function. Chow fed female FVBNJ mice (Jackson laboratories) were fasted for 6 hours. Each mouse was intraperitoneal injected with Vehicle (0.9% NaCl) or Xylamidine (3 mg/kg in 0.9% NaCl) at −100 minutes, followed by Vehicle or 5-HT (5 mg/kg in 0.9% NaCl) at −40 minutes, and finally Glucose ([…]) at 0 minutes. Blood glucose was monitored at the indicated times (FIG. 22). Chow mice were administered xylamidine tosylate (3 mg/kg daily) via intraperitoneal injection for ˜5 weeks. Mice were then moved to anaesthetized and injected with either saline or CL-316,243. Oxygen consumption was recorded while at 30° C. Finally, xylamidine tosylate (3 mg/kg i.p. daily) was administered to mice on a HFD and indices of whole body metabolism, such as resting energy expenditure, glucose tolerance and NAFLD, were evaluated. The mRNA and protein expression of markers of beige adipose tissue (UCP1, PRDM16, NDUFB8, SDHB, MTCO1, UQCRC2 and ATP5A) were also evaluated.

[1] = tested on: Chow fed female FVBNJ mice; experiment: Acute xylamidine, 5-HT and glucose injection: glucose tolerance; format: in vivo; settings: acute administration 3 mg/kg i.p.; effect larger when pre-treated with 5-HT
Protocol: as §1

Chow mice = experiment: Repeated xylamidine tosylate in chow mice: BAT energy expenditure with saline or CL-316,243; format: in vivo
Protocol: as §1

mice on a HFD = experiment: Chronic xylamidine tosylate in mice on a HFD; format: in vivo
Protocol: (B) graphically depicts the fat content of mice from (A). […] Bars/points represent mean and error bars indicate S.E.M;
as §1

[2] = chronic administration, high fat diet

NCCc1c[nH]c2ccc(O)cc12 [5-HT, 5-hydroxytryptamine]
isoproterenol-stimulated cAMP (BAT cells): attenuated | phosphorylation of protein kinase A substrates (HSL S660) (BAT cells): attenuated | induction of the thermogenic gene program (BAT cells; Pgc1a, Pdk4, Ucp1): blunted | isoproterenol-induced increases in lipolysis (5-HT receptor): blunts | Ca2+ levels (5-HT2A; brown adipocytes stained with Fluo-4, agonist treatment): increased | Ucp1 mRNA (UCP1; brown adipocytes): decreased | Ucp1 promoter activity (UCP1; brown adipocytes): decreased | UCP1 protein levels (UCP1; brown adipocytes, chronic treatment for NBOH-2C-CN): decreased | UCP1 protein content (UCP1; cultured brown adipocytes, only in the presence of paroxetine (SSRI), 8 days): decreased | brown adipose tissue associated oxygen consumption and inter-scapular surface area temperature (brown adipose tissue; BAT activated with CL-316,243, 5 mg/kg 5-HT): significantly attenuated | markers of brown adipose tissue activity (VO2, interscapular surface temperature) (brown adipose tissue; thermoneutral conditions, BAT inactive (saline), 5 mg/kg 5-HT): no effect

COc1cccc(OC(C)CNC(=N)Cc2cccc(C)c2)c1.Cc1ccc(S(=O)(=O)O)cc1 (stereo not shown) [xylamidine tosylate]
5-HT induced Ca2+ transients (5-HT2A; pre-treatment with antagonist): attenuated | effects of 5-HT on BAT activity (brown adipose tissue; pre-treatment 3 mg/kg, CL-316,243 activated BAT): completely blocked | glucose tolerance [1]: improved | brown adipose tissue specific energy expenditure (Chow mice; chow mice, repeated administration 3 mg/kg daily ~5 weeks, CL-316,243): increased | energy expenditure when BAT is inactive (Chow mice; saline): no effect | oxygen consumption, heat production, and non-moving oxygen consumption (mice on a HFD; 3 mg/kg daily, high fat diet): increased | glucose tolerance (mice on a HFD; 3 mg/kg daily, high fat diet (45% of calories from fat)): improved | iWAT levels of UCP1 and mitochondrial proteins (mice on a HFD; [2]): increased | iWAT mRNA levels of Prdm16 (mice on a HFD; [2]): elevated | liver triglycerides levels (mice on a HFD; [2]): significantly reduced | weight gain and increases in fat mass (mice on a HFD; [2]): prevented
